Data from publication PMC9787607, “A Novel Protocol for the Synthesis of 1,2,4-Oxadiazoles Active against Trypanosomatids and Drug-Resistant Leukemia Cell Lines” (Tropical Medicine and Infectious Disease, 2022).

Legend:
[1] = Cytotoxicity to LLC-MK2 host cells (MTT); format: cell-based; details: rhesus monkey, LLC-MK2 cells (kidney fibroblasts); screening at 50 μM, 120 h
Method: LLC-MK2 kidney fibroblasts (ATCC) and RAW 264.7 macrophages (ATCC) were cultivated in culture flasks in complete DMEM with 5% FBS at 37 °C in 5% CO2. The LLC-MK2 cell monolayer was detached by treatment with trypsin-EDTA 0.05% for 5 min at 37 °C. The RAW cell monolayer was detached mechanically. In both cases, the cells were centrifuged at 480× g for 6 min and resuspended in complete DMEM with 5% FBS, and the cell density was determined by counting with trypan-blue dye exclusion on Neubauer chambers before use.
LLC-MK2 cells were seeded in a 96-well microplate (1.0 × 10^4 cells per well) in complete DMEM with 5% FBS (120 µL per well). After incubation for 24 h at 37 °C in 5% CO2, the medium was renewed, and compounds were added at a range of concentrations in triplicate (50 μM or 100–1 μM). Untreated cells and cells treated with DMEM and 10% DMSO were used as negative and positive controls, respectively. Vehicle control containing DMEM and 0.3% DMSO was maintained for comparison. After incubation for 120 h at 37 °C in 5% CO2, the medium was renewed, and MTT salt solution in PBS was added (3.0 mM, 20 µL per well). After incubation for 2 h at 37 °C in 5% CO2, the supernatant was removed, and MTT formazan was dissolved in DMSO (150 µL per well). Absorbance was measured using a microplate reader at 570 nm.
(§1) The percent cell or parasite viability was calculated by the formula: % viability = [(A − P)/(N − P)] × 100, A = absorbance of specific well, P = positive control, N = negative control. Determination of half-maximal effective concentrations (EC50), calculated by logarithmic regression, and significance analysis (p < 0.05), using ANOVA and Dunnett’s test, by GraphPad Prism 7.0 software. The results are expressed as the mean and standard deviation (SD) of three independent experiments.

FEPS (K562/DNR) = test: MTT cytotoxicity to MDR CML cell line FEPS; format: cell-based, human; details: for EC50: Homo sapiens, K562, 72 h, MTT; for RR (relative resistance) FEPS: (EC50 MDR cells)/(EC50 parental cells), FEPS/K562
Method: (§2) The CML cell lines K562, Lucena-1 (K562/VCR), and FEPS (K562/DNR) were cultured in RPMI-1640 medium supplemented with 25 mM HEPES and 2 g L^−1 sodium bicarbonate adjusted to pH 7.4 with NaOH, 100 U penicillin and […] streptomycin. All media were supplemented with 10% FBS. Dr. Vivian M. Rumjanek (Instituto de Bioquímica Médica, UFRJ, Brazil) kindly donated Lucena-1 and FEPS cells. Briefly, K562 cells were exposed to increasing concentrations of the chemotherapeutic drugs vincristine sulfate (VCR) and daunorubicin hydrochloride (DNR) (both from Sigma-Aldrich), as described previously. Lucena-1 (K562/VCR) and FEPS (K562/DNR) cells were cultured in the presence of either 60 nM VCR or 500 nM DNR to maintain the MDR phenotypes. For subcultures, cells were harvested every three days followed by washing with cold FBS, and a final concentration of 2 × 10^4 cells mL^−1 was maintained at 37 °C in 5% CO2.
(§3) Cell viability was determined by the 3-(4,5-dimethylthiazol-2-yl)-2,5-diphenyltetrazolium (MTT) colorimetric assay. CML cells (2 × 10^4 cells·mL^−1) were incubated for 72 h at 37 °C, followed by treatment with compounds at a range of concentrations (100–1 μM). Negative controls were prepared with 0.5% DMSO. An MTT salt solution was added to each well to a final concentration of 0.5 g·L^−1, and plates were incubated at 37 °C in 5% CO2 for 3 h. After centrifugation, 200 μL DMSO was added to dissolve the dark-blue formazan crystals formed by MTT reduction. Absorbance was measured on a microplate reader at 570 nm, which is directly proportional to formazan contents and indicative of living cells.
as §1

Lucena-1 (K562/VCR) = test: cells; format: cell-based, human; details: for EC50: Homo sapiens, Lucena 1, 72 h, read-out: EC50 Lucena-1; for RR (relative resistance) Lucena-1: (EC50 MDR cells)/(EC50 parental cells), Lucena-1/K562
Method: as §2, §3, §1

[2] = Cytotoxicity to BALB/c mouse total splenocytes (MTT); format: cell-based; details: male, total splenocytes (primary), 100 μM, 48 h, compared to the untreated control (Table S1)
Method: BALB/c mouse total splenocytes were harvested from male mice between 6–8 weeks old. After euthanasia, the spleens were removed and macerated in DMEM. After centrifugation, the cells were treated with hemolytic ACK buffer at 37 °C for 5 min. […] After incubation for 48 h at 37 °C in 5% CO2, cell viability was determined after the addition of 20 µL per well of a solution containing MTT salt (3.0 mM) and phenazine metasulphate (0.72 mM). After further incubation for 1 h at 37 °C, the medium was removed, and DMSO was added to dissolve the dark-blue formazan crystals formed by MTT reduction. Absorbance was measured on a microplate reader at 570 nm.
as §1

K562 = test: MTT cytotoxicity to CML cell line K562; format: cell-based; details: Homo sapiens, 72 h
Method: as §2, §3, §1

[3] = system: T. cruzi amastigotes (Tulahuen C2C4 LacZ strain); test: microbe, parasite or virus in culture; format: cell-based, Trypanosoma cruzi; details: Trypanosoma cruzi, TULAHUEN, LLC-MK2, 120 h, screening at 50 μM, 120 h, compared with untreated controls
Method: To a monolayer of 1.0 × 10^7 LLC-MK2 cells in a 150 cm^2 culture flask were added 5.0 × 10^7 trypomastigotes of T. cruzi expressing the […] (Tulahuen C2C4 LacZ) in complete DMEM with 2.5% FBS. The infection was allowed to occur for 24 h, the supernatant was removed, and the cell monolayer was washed with PBS. Complete DMEM with 2.5% FBS was renewed every 2 days up to the sixth day after infection. Trypomastigote forms were collected daily from the supernatant between days 7 and 12 after infection, enriched by differential centrifugation (1500× g for 10 min, 5580× g for 20 min), and resuspended in complete DMEM with 5% FBS. Parasite density was determined by counting the mobile trypomastigotes on Neubauer chambers before use.
. The medium was renewed, and trypomastigote forms of T. cruzi (Tulahuen C2C4 LacZ strain, 2.0 × 10^5 parasites per well) were added. After incubation for 24 h at 37 °C in 5% CO2, the cell monolayer was washed with PBS to remove noninternalized parasites. DMEM without phenol red and 5% FBS was added, and infected cells were treated with compounds at a range of concentrations in triplicate (50 μM or 100–1 μM). Untreated infected cells and noninfected LLC-MK2 cells were used as negative and positive controls, respectively. Vehicle control containing DMEM without phenol red and 0.3% DMSO was maintained for comparison. After incubation for 120 h at 37 °C in 5% CO2, a solution containing […] and 0.8% IGEPAL CA-630 in PBS (30 µL per well), followed by further incubation for 2 h at 37 °C in 5% CO2. Absorbance was measured using a microplate reader at 570 nm.
as §1

[4] = system: L. amazonensis promastigotes; test: Anti-L. amazonensis promastigote assessment (MTT); format: cell-based; details: Leishmania amazonensis; 48 h, MTT; read-out: EC50 L. amazonensis promastigotes
Method: Promastigotes of L. amazonensis (MHOM/BR/75/Josefa) were cultured in Schneider’s insect medium (SIM) with 10% FBS. Parasites were harvested at the stationary growth phase for assessment against promastigotes and 24 h after cultures reached the stationary growth phase for infection assays. […]. Complete SIM media and amphotericin B (AmB) at 10 µM were used as negative and positive controls, respectively. A vehicle control containing SIM with 10% SFB media and 0.3% DMSO was maintained for comparison. The final volume of the experiment was 100 µL. After incubation for 48 h at 27 °C, MTT salt solution in PBS was added (3.0 mM, 20 µL per well). After incubation for 2 h at 27 °C, the MTT formazan was dissolved by adding 120 µL of solubilizing buffer (50% isopropanol, 40% acetate buffer pH 5.4, 10% Triton-X). Absorbance was measured using a microplate reader at 570 nm.
as §1

Compound | viability at 120 h, 50 µM [1] [%] | EC50 (FEPS (K562/DNR)) [µM] | EC50 (Lucena-1 (K562/VCR)) [µM] | viability at 48 h, 100 µM [2] [%] | EC50 (K562) [µM] | viability at 50 µM [3] [%] | EC50 [4] [µM] | melting point [°C] | RR (relative resistance) FEPS (FEPS (K562/DNR)) | RR (relative resistance) Lucena-1 (Lucena-1 (K562/VCR))
C(=C\c1nc(-c2ccccc2)no1)/c1ccccc1 [Compound 9, (E)-3-phenyl-5-[2-phenylvinyl]-1,2,4-oxadiazole] | 87.2 ± 4 | > 100 | > 100 | 102 ± 7.4 | > 100 | 87 ± 4.9 | 74.5 ± 4.9 |  |  | 
COc1cccc(/C=C/c2nc(-c3ccccc3)no2)c1 [Compound 10, (E)-3-phenyl-5-[2-(3-methoxyphenyl)vinyl]-1,2,4-oxadiazole] | 86.6 ± 3.6 | > 100 | > 100 | 85.4 ± 4 | > 100 | 77.7 ± 6.3 | 50.8 ± 6.3 | 88 to 90 |  | 
COc1ccc(/C=C/c2nc(-c3ccccc3)no2)cc1 [Compound 11, (E)-3-phenyl-5-[2-(4-methoxyphenyl)vinyl]-1,2,4-oxadiazole] | 77.4 ± 4 | 58.8 ± 6.1 | > 100 | 84.4 ± 2.9 | > 100 | 86.2 ± 5.3 | > 100 | 132 to 135 | <0.59 | 
C(=C\c1nc(-c2ccccc2)no1)/c1ccc2c(c1)OCO2 [Compound 13, (E)-3-phenyl-5-[2-(3,4-methylenedioxy-phenyl)vinyl]-1,2,4-oxadiazole] | 75.9 ± 1.3 | 68.5 ± 8.7 | 46.5 ± 1.9 | 98.8 ± 5.1 | 92.3 ± 4.2 | 72 ± 3.7 | > 100 | 157 to 159 | 0.74 | 0.50
C(=C\c1nc(-c2ccccc2)no1)/c1ccc2c(c1)OCCO2 [Compound 14, (E)-3-phenyl-5-[2-(3,4-ethylenedioxy-phenyl)vinyl]-1,2,4-oxadiazole] | 84.5 ± 4.6 | 41.1 ± 4.9 | 64 ± 3.2 | 93.6 ± 5.9 | > 100 | 60.5 ± 3.8 | 92.5 ± 3.8 | 143 to 145 | <0.41 | <0.64
C(=C\c1nc(-c2ccccc2)no1)/c1ccco1 [Compound 16, (E)-3-phenyl-5-[2-fur-2-yl-vinyl]-1,2,4-oxadiazole] | 89.2 ± 1.4 | 54.7 ± 1.7 | 65 ± 9.6 | 53.5 ± 5.2 | 52.8 ± 17.7 | 83 ± 3.7 | 47.1 ± 3.7 | 83 to 85 | 1.03 | 1.23
Fc1ccc(/C=C/c2nc(-c3ccccc3)no2)cc1 [Compound 18, (E)-3-phenyl-5-[2-(4-fluorophenyl)vinyl]-1,2,4-oxadiazole] | 90.7 ± 4.3 | 66.7 ± 9.6 | 59.9 ± 12.2 | 102 ± 11.5 | > 100 | 82.8 ± 4.7 | > 100 |  | <0.67 | <0.59
Clc1ccc(/C=C/c2nc(-c3ccccc3)no2)cc1 [Compound 19, (E)-3-phenyl-5-[2-(4-chlorophenyl)vinyl]-1,2,4-oxadiazole] | 77.8 ± 0.9 | > 100 | 43.4 ± 3.4 | 90.5 ± 5.3 | 47.1 ± 1.2 | 83.4 ± 5.9 | > 100 |  | >2.12 | 0.92
